This is an account of results in patent publication US11421204B2, “Method of removing pluripotent cells from culture” (REPROCELL INCORPORATED, priority 2015, dated 2022).

The subject of data set [1] is iPS cell (cell line 201B7). Kind of data set: Evaluation of effects of ALA-PDT for iPS cell (cell form, ALP expression). The class given is cell-based, human. The following applies: ALA 1000 micro-M and/or SFC 500 micro-M for 48 hours, blue LED 10 minutes, 24 hours afterward; Blue Alkaline Phosphatase Substrate Kit III.
Another data set relates to RC010 (iPS cell line). The data set can be described thus: ALA-PDT on iPS cell line RC010, cell survival by CCK8 (Example 2). It is filed as cell-based, human. Conditions: ALA hydrochloride 125-1000 micro-M, 4 or 24 hours, red LED 10 minutes, cell wraps r11-r13: SURVIVAL/PROLIFERATION SUPPRESSION
On the procedure:
(§1) As pluripotent stem cell lines, separately, for 201B7 cell line, which is equivalent as above-mentioned Example 1, and for RC001 and RC010 (ReproCELL Inc.), after maintaining as like above-mentioned Example 1, evaluations of the ALA effects were performed.
(§2) Then, each of them was cultivated with culture medium added ALA hydrochloride having concentration (0, 125, 250, 500, 1000 micro-M), respectively.

In the next data set the test system is RC001 (iPS cell line). The data set can be described thus: ALA-PDT on iPS cell line RC001, cell survival by CCK8 (Example 2). The class given is cell-based, human. The following applies: ALA hydrochloride 125-1000 micro-M, 4 or 24 hours, red LED 10 minutes, cell wraps r8-r10: SURVIVAL/PROLIFERATION SUPPRESSION
As for the experimental part: as §1, §2

Data set [2] concerns neuron performed differentiation induction from the human iPS cell (ReproNeuro). The data set can be described thus: Evaluation of effects of ALA-PDT for neuron originated from iPS cell. It is filed as cell-based. The following applies: red LED 10 minutes. On the procedure:
Then, the effects by ALA-PDT for the neuron performed differentiation induction from the human iPS cell (neuron originated from iPS cell) were evaluated. The used neuron was ReproNeuro. […] After that, the cell form was observed. Then, the cultured neuron was irradiated with red LED (wavelength of 635 nm) for 10 minutes, and the cell form was observed after 12-hour progresses (overnight). Then, it was exchanged the culture medium, which ALA was not included, and the cell form was observed after cultivating with exchanging the culture media for seven days.

For another data set, the system named is human iPS cell. Kind of data set: Comparison of effects by ALA concentration of ALA-PDT for iPS cell (CCK8). It is filed as cell-based. As for the experimental part:
Then, in ALA-PDT for the human iPS cell, the effects for changing the concentration of ALA were compared.
(§3) The iPS cell performed the passage process as well as an above-mentioned process was incubated for 2 to 4 minutes by using CTK (collagenase trypsin KSR) in 37 degree-C and then separated by pipetting.

The test system of data set [3] is normal human dermal fibroblast (HDF). The data set can be described thus: Comparison of effects by ALA concentration of ALA-PDT for HDF (CCK8). It is filed as cell-based. Conditions: ALA 0-1000 micro-M, 4 hours, red LED 10 minutes, CCK8 24 hours afterward. On the procedure: Also, the commercial normal human dermal fibroblast (CA106K05a, Cell Applications Inc., HDF) was used for comparative example(s).
as §3
About a normal human dermal fibroblast (HDF), based on the equivalent conditions as above-mentioned “comparison of effects by ALA hydrochloride concentration and photoirradiation of ALA-PDT for iPS cell”, the effects of the ALA concentration and ALA-PDT were compared.

In data set [4] the test system is 201B7 cell line (iPS cell). The data set can be described thus: ALA-PDT on iPS cell line 201B7, cell survival by CCK8 (Example 2). Conditions: for rate of cell survival as compared with the control: 201B7.
The subject of data set [5] is iPS cell (cell line 201B7). Kind of data set: Comparison of effects by wavelength of photoirradiation of ALA-PDT for iPS cell. It is filed as cell-based, human. Conditions: ALA 100 or 1000 micro-M for 4 hours, red or blue LED 10 minutes, 24 hours afterward. As for the experimental part:
Then, the effect by the difference of the wavelength in the photoirradiation of ALA-PDT for a human iPS cell was compared.
Then, the cultured iPS cell was irradiated with red LED (wavelength of 635 nm) or blue LED (wavelength of 405 nm) for 10 minutes, and the cell form was observed 24 hours afterward.
Culture conditions were: used cell line: 201B7 and used culture-medium: Primate ES Cell Medium.

Data set [6] concerns iPS cell (cell line 201B7). Kind of data set: Evaluation of effects of ALA and/or SFC for iPS cell without photoirradiation (cell form). The class given is cell-based, human. Conditions: ALA 1000 micro-M; observed 0, 4, 24, 48 hours after addition; no PDT. The source says: As a pluripotent stem cell line, a human iPS cell line (iPSC) established at ReproCELL Inc. and subcultured 50 times was used. For on-feeder cultivation, the cell line of the pluripotent stem cell was maintained on mouse embryonic fibroblast (MEF) feeder cell (RCHEFC003, ReproCELL Inc.) processed by mitomycin C in a 60-mm polystyrene plate (dish) coated by ReproCoat (ReproCELL Inc.) with culture medium for pluripotent stem cells (Primate ES cell medium, RCHEMD001, ReproCELL Inc.) as like the conventional technique. ReproCoat was coated by using on a plate at the concentration of 0.2 micro-g/cm^2 and allowing to keep it at 4 degree-Celsius, overnight.
34 mg of ALA hydrochloride (M. W.=167.6, SBI Pharmaceuticals Co., Ltd.) was weighed, and 1000 micro-L of PBS (−) (Wako Pure Chemical Industries Ltd.) were added. Thereby, 200 mM ALA solution was prepared. The solution of the prepared ALA hydrochloride (hereinafter, it is only called as “ALA solution”) was stored on a freezer at −20 degree-C until use.

Data set [7] relates to hepatic cell originated from human iPS cell. The data set can be described thus: Evaluation of effect of ALA-PDT for hepatic cells of iPS cell origin. The class given is cell-based. On the procedure: The effect by ALA-PDT was evaluated for a hepatic cell originated from human iPS cell equivalent to the above-mentioned Example 1. At this example, the culture condition was plating 500,000 cells per well in a 24-well plate, then each concentration (0, 250, 500 micro-M) of ALA hydrochloride was added to the cell on the seventh day, photoirradiation was performed for 10 minutes by red LED 24 hours afterward, then form observation was carried out on the next day and after. The irradiation power of red LED was the same as that of above-mentioned case.

Where [8] appears, read: 250 micro-M ALA hydrochloride for 24 hours, red LED 10 minutes.

Entries after “also recorded” stand apart in the source; their conditions may differ.

With sodium ferrous citrate [SFC], the “undifferentiated state by expression of ALP after ALA-PDT” value in data set [1] is on record as “maintaining the undifferentiated-like state”.
On to `NCC(=O)CCC(=O)O` [ALA, delta-aminolevulinic acid], for which the “EFFECT BY ALA” value in the data set on RC010 (iPS cell line) was “Survival and proliferation for each cell line were suppressed”; in the data set with RC001 (iPS cell line), “Survival and proliferation for each cell line were suppressed”; in data set [4] (cell line 201B7, ALA hydrochloride 125-1000 micro-M, 4 or 24 hours, red LED 10 minutes, CCK8, cell wraps r5-r7: SURVIVAL/PROLIFERATION SUPPRESSION), “Survival and proliferation for each cell line were suppressed”. In [2] (ALA 250, 500 micro-M for 4 hours, cultivation continued for seven days), the “survival of neuron after ALA-PDT” value was “continued surviving without extinction and recovered as like the condition before ALA addition”. The “cell adhesion and neural spine seven days after ALA-PDT” value in data set [2] (seven days after adding 250 micro-M, 500 micro-M ALA) was “cell adhesion could be confirmed, and the neural spine was elongating in all of them”. Besides, in data set [1], the “undifferentiated state by expression of ALP after ALA-PDT” value is “ALP became negative; also recorded: an undifferentiated iPS cell was no longer observed”. The “cell death of the iPS cell by ALA-PDT” value in the data set with human iPS cell (ALA concentration greater than or equal to 250 micro-M, 4 hours after addition red LED 10 minutes, CCK8 24 hours afterward) is reported as at least 60%. Besides, in the data set on human iPS cell (ALA concentration greater than or equal to about 100 micro-M, other experiment (not shown)), the “cell death of iPS cell by ALA-PDT” value is at least 10%. The “induction of cell death of HDF by ALA-PDT (CCK8)” value in [3] was “induction of the cell death by ALA-PDT was not observed”. Further, the “rate of cell survival as compared with the control” value in [4] (250 micro-M ALA, after-addition time 4 hours, red LED 10 minutes, CCK8) is 65%; in data set [4] (after-addition time 24 hours, red LED 10 minutes, CCK8) it was 7%. Also, the “rate of cell survival with after-addition time longer than 24 hours, compared with 24 hours” value in [4] (preliminary experiment) is reported as “there is no change the rate of cell survival”. Besides, the “expression of ALP (undifferentiated state) after ALA-PDT, red vs blue LED” value in data set [5] was “it became impossible to maintain the undifferentiated state”. In addition, in data set [6], the “influence on the iPS cell (cell form, undifferentiated form) without photoirradiation” value is “influence on the iPS cell was not observed”. The “form observation of hepatic cells 24 hours after LED irradiation” value in data set [7] (setting [8]) is “the cell with clear cobblestone morphology and nucleus remained”. Further, the “form observation of hepatic cells 48 hours after LED irradiation” value in [7] (setting [8]) was “the cell with cobblestone morphology and nucleus continued surviving”. For the same compound, the “protection of hepatic cells from ALA-PDT” value in data set [7] (250 micro-M ALA, preliminary experiment) is recorded as “it was protected”. Also, the “survival of hepatic cells after ALA-PDT” value in [7] (ALA hydrochloride 250 and 500 micro-M, red LED 10 minutes, 24 and 60 hours after irradiation) was “survived under the various conditions of ALA-PDT were present”. The “state of survived hepatic cells, 250 micro-M versus 500 micro-M (visual inspection)” value in data set [7] (ALA hydrochloride 250 vs 500 micro-M, red LED 10 minutes) is “the state of the survived cells under the condition of 250 micro-M were better than that of 500 micro-M”.
